From ChEMBL document CHEMBL1134709 (Bioorg Med Chem Lett, 2001)

The compounds below were run against T1, Protein Tat (Human immunodeficiency virus type 1 group M subtype B (isolate PCV12)(HIV-1), UniProt P04326) (assay: Inhibition of Tat peptide binding to HIV-1 TAR RNA).
T1 sequence (P04326 whole entry): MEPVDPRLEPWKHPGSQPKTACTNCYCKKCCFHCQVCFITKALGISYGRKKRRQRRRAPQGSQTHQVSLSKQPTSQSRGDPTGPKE
Design: species or system Human immunodeficiency virus type 1 (CLONE 12)

**Q.** With NC1C[C@@H](N)[C@@H](O)[C@@H](O)C1O[C@@H]1OC(CNC(=O)c2ccc3ccc4cccc5ccc2c3c45)C(O)[C@H](O)[C@@H]1N (some centres undefined) as the compound, how does the IC50 read?
**A.** Its IC50 is 1700 nM.

**Q.** With N=C(N)NCCCC(N)C(=O)NCC1O[C@@H](OC2C(N)C[C@@H](N)[C@@H](O)[C@H]2O)[C@@H](N)[C@@H](O)C1O (some centres undefined) as the compound, how does the IC50 read?
**A.** Its IC50 is 600 nM.

**Q.** With N=C(N)NCCCC(NC(=O)c1ccc2ccc3cccc4ccc1c2c34)C(=O)NCC1OC(OC2C(N)CC(N)C(O)C2O)C(N)C(O)C1O (centres undefined) as the compound, how does the IC50 read?
**A.** Its IC50 is 28 nM.

**Q.** NC[C@H]1OC(O[C@H]2[C@H](O)C(O)[C@H](N)C[C@@H]2N)C(N)[C@@H](O)[C@@H]1O (single isomer, unassigned) [NEAMINE] was tested. Which IC50 did it give?
**A.** The IC50 was 28000 nM.
